What all share (assay type): in vivo
One assay deals with hepatic gene expression. Nature of the assay: qPCR analysis of hepatic gene expression in WD-fed apoE−/− mice. The settings on record: for Hepatic expression of CCL2 / Hepatic expression of TNFα / Hepatic expression of key genes regulating FAO (PPARα, PNPLA2, CACT, CPT1a, ACADL): apoE−/− mice on WD, qPCR (FIG. 16D). The source says: (§1) Eight-week-old male apolipoprotein E-deficient (apoE−/−) mice (B6.129P2-Apoetm1Unc/J, Stock No.: 002052) were obtained from Jackson Laboratories. Mice were fed Western diet (WD, 42% of calories from fat and 0.2% cholesterol by weight, Envigo TD.88137). After one week of WD feeding, blood was carefully collected from the facial vein to determine baseline plasma levels of total cholesterol (TC). […] All mice were maintained on a 12-hour light/dark cycle and had ad libitum access to food and water. Body weight and food intake were measured every one and three weeks, respectively
Total RNA from liver or adipose tissue samples was extracted using QIAGEN's RNeasy kits (QIAGEN). RNA was reverse-transcribed into cDNA with SuperScript III and random primers (Invitrogen). Specific transcript levels were assessed by a real-time PCR system (Bio-Rad) using IQ SYBR Green Supermix (Bio-Rad) and the ΔΔCt threshold cycle method of normalization. Gene expression levels were normalized to glyceraldehyde 3-phosphate dehydrogenase (GAPDH). Primer pairs used for qPCR were obtained from Integrated DNA Technologies and are listed below:
Total RNA from mouse liver samples was extracted using QIAGEN's RNeasy kits (QIAGEN). RNA was reverse-transcribed into cDNA with SuperScript III and random primers (Invitrogen). Specific transcript levels were assessed by a real-time PCR system (Bio-Rad) using IQ SYBR Green Supermix (Bio-Rad) and the ΔΔCt threshold cycle method of normalization. Gene expression levels were normalized to glycerldehyde 3-phosphate dehydrogenase (GAPDH).
(In qPCR the cycle at which signal appears reflects the starting amount.)

The test system of assay [1] is WD-induced hepatic steatosis. Nature of the assay: Liver H&E/ORO histology and hepatic lipid (TG, TC) quantification in WD-fed apoE−/− mice. The settings on record: for Hepatic steatosis by H&E staining / HS by histology and lipid quantification: apoE−/− mice on WD; for Hepatic steatosis by H&E staining: 12 weeks; for HS by histology and lipid quantification: endpoint (FIG. 16A-C); for Hepatic TC, decreased by / Hepatic TG, decreased by: extracted hepatic lipids, endpoint, vs WD+H2O.
Text: as §1
Histology processing was performed by the In Vivo Animal Core (IVAC) Histology Laboratory within the Unit for Laboratory Animal Medicine (ULAM) of the University of Michigan. Formalin-fixed tissues were processed through graded alcohols and cleared with xylene followed by infiltration with molten paraffin using an automated VIP5 or VIP6 tissue processor (TissueTek, Sakura-Americas). Following paraffin embedding using a Histostar Embedding Station (ThermoFisher Scientific), tissues were sectioned on a M 355S rotary microtome (ThermoFisher Scientific) at 4 μm thickness and mounted on glass slides. Following deparaffinization and hydration with xylene and graded alcohols, slides were stained for hematoxylin and eosin (H&E) using Harris hematoxylin (ThermoFisher Scientific, Cat #842), differentiated with Clarifier (ThermoFisher Scientific, Cat #7401), blued with bluing reagent (ThermoFisher Scientific, Cat #7301), stained with eosin Y, alcoholic (ThermoFisher Scientific, Cat #832), then dehydrated and cleared through graded alcohols and xylene and coverslipped with Micromount (Leica cat #3801731) using a Leica CV5030 automatic coverslipper. Immunohistochemical staining was performed on an IntelliPATH FLX automated immunohistochemical stainer (Biocare Medical, Cat #IPS0001US) and included blocking for endogenous peroxidases and non-specific binding, detection using a horseradish peroxidase biotin-free polymer based commercial detection system, disclosure with diaminobenzidine chromogen, and nuclear counterstaining with hematoxylin. Specific to F4/80, (Bio-Rad ABD Serotec, Cat #MCA497), the rat monoclonal primary antibody (clone CI:A3-1) was diluted to 1:400 in DaVinci Diluent (Biocare Medical, Cat #PD900) and incubated for 60 min followed by detection using Rat-on-Mouse HRP-Polymer, (Biocare Medical, Cat #RT517) 2-step probe-polymer incubation for 10 and 30 min respectively.
Livers were rapidly removed from the euthanized mice and kept at −80° C. Frozen liver samples (approximately 100 mg) were homogenized in PBS and centrifuged (14,000 RPM, 20 min). The supernatants were collected and analyzed for protein content by the Bio-Rad Bradford assay. To assess liver lipid composition, lipids were extracted from the supernatants using hexane ([…], 32293, Sigma-Aldrich) and isopropanol (≥99.5%, A426-4, Fisher Scientific) at a 3:2 ratio (v:v), and the hexane phase was left for evaporation for 48 h. The amount of liver TG or TC was determined spectrophotometrically using commercially available kits (Wako Chemicals). Data were normalized to protein levels and presented as μg TG or TC/mg protein.
Livers were rapidly removed from the euthanized mice, snap-frozen with liquid nitrogen, and kept at −80° C. Frozen liver samples (100 mg) were homogenized in PBS and centrifuged (14,000 RPM, 20 min). The supernatants were collected and analyzed for protein content using Bio-Rad Bradford assay. To assess liver lipid composition, lipids were extracted from the supernatants using hexane (≥99%, Sigma-Aldrich 32293) and isopropanol (≥99.5%, Fisher Scientific A428-4) at a 3:2 ratio (v:v), and the hexane phase was left for evaporation for 48 h. […] Liver diacylglycerols (DAG) were determined using ELISA Kit (Aviva Systems Biology, OKEH02607), according to the manufacturer's instructions. Hepatic TG, TC and DAG data were normalized to protein levels.

The next assay relates to atherosclerotic lesions. The assay can be described thus: Analysis of atherosclerotic lesions (Oil Red O, en face aorta) in WD-fed apoE−/− mice. The settings on record: apoE−/− mice on WD, 12 weeks; vs WD+H2O.
Text: as §1
After collection of blood, the mice were perfused with 20 mL of saline solution through the heart, followed by 20 mL of 37% formalin. The mice were fixed with formalin and the whole aortic tree was dissected under a surgical microscope. Next, the aortic trees were stained with Oil Red O solution (0.2% Oil Red O (w/v) in 3.5:1 of methanol:1N NaOH) for 50 min, followed by 70% ethanol for 30 min. Aortic trees were then kept in DDW. The aortic trees were then cleared of adhering adipose and connective tissues, and longitudinally opened with Vannas scissors to expose the atherosclerotic lesions. Images of whole aortic trees were obtained using a digital camera, and the percentage of the plaque area stained by Oil Red O with respect to the total luminal surface area was quantified with ImageJ analysis software (http://imagej.nih.gov/ij/).

Non-standard residues stand in square brackets, D forms with d. No end group written: not given here.

For `NCC(=O)O` [glycine, reference compound], in the assay with hepatic gene expression, the “Hepatic expression of CCL2” value was “downregulation”; the “Hepatic expression of TNFα” value is “without significant changes”; the “Hepatic expression of key genes regulating FAO (PPARα, PNPLA2, CACT, CPT1a, ACADL)” value was “upregulation”. For the same molecule, in the assay with hepatic gene expression (liver, endpoint, qPCR), the “Hepatic expression of ABCG5 and ABCG8” value is “significantly increased”; the “Hepatic expression of AMPKα1 and PPARα” value is “significantly induced”; the “Hepatic expression of PNPLA2, CPT1a, CACT, ACADI and UCP2” value (“Hepatic expression of PNPLA2, CPT1a” for short) was “significantly upregulated”; the “Hepatic expression of genes regulating gluconeogenesis (G6pc, PCK1 and FBP1)” value is recorded as “no significant change”. Also, in the assay on hepatic gene expression (liver, endpoint, qPCR), the “Hepatic expression of genes regulating glucose uptake (GLUT1, GLUT2 and GLUT4)” value is “upregulated”; the “MCP1 expression in the liver” value was “suppressed”. Besides, in assay [1], the “Hepatic steatosis by H&E staining” value is recorded as “abolished”; the “HS by histology and lipid quantification” value is given as “reduced HS”; the “Hepatic TC, decreased by” value amounted to 76%; the “Hepatic TG, decreased by” value was determined as 74%. Also, in the assay with atherosclerotic lesions, the “Total atherosclerotic plaques (en face aortic lesions, Oil Red O), reduction by” value (“Total atherosclerotic plaques … reduction by” below) came to 48%.

Turning to `CC(C)C[C@H](N)C(=O)O` [leucine], in assay [1], the “Hepatic steatosis by H&E staining” value is “marked microvesicular and macrovesicular steatosis”; the “Hepatic TC, decreased by” value is reported as “no significant effects”; the “Hepatic TG, decreased by” value is reported as “no significant effects”. In addition, the “Total atherosclerotic plaques … reduction by” value in the assay with atherosclerotic lesions is “but not in mice treated with leucine”.

For the molecule Gly-Gly-Leu [DT-109], in the assay with hepatic gene expression, the “Hepatic expression of CCL2” value is “downregulation”; the “Hepatic expression of TNFα” value is on record as “without significant changes”; the “Hepatic expression of key genes regulating FAO (PPARα, PNPLA2, CACT, CPT1a, ACADL)” value is recorded as “upregulation”. Besides, in the assay with hepatic gene expression (liver, endpoint, qPCR), the “Hepatic expression of ABCG5 and ABCG8” value is recorded as “significantly increased”; the “Hepatic expression of AMPKα1 and PPARα” value is reported as “significantly induced”; the “Hepatic expression of PNPLA2, CPT1a” value is reported as “significantly upregulated”. In assay [1], the “Hepatic steatosis by H&E staining” value was “abolished”; the “HS by histology and lipid quantification” value is on record as “reduced HS”; the “Hepatic TC, decreased by” value came out at 71%; the “Hepatic TG, decreased by” value was 73%. In addition, in the assay with atherosclerotic lesions, the “Total atherosclerotic plaques … reduction by” value is recorded as 62%.

For the molecule Gly-Gly-[dL] [DT-110], in the assay with hepatic gene expression (liver, endpoint, qPCR), the “Hepatic GLUT1 expression” value was “markedly induced”; the “Hepatic expression of ABCG5 and ABCG8” value is given as “significantly increased”; the “Hepatic expression of AMPKα1 and PPARα” value was “significantly induced”; the “Hepatic expression of LDLR” value is “significant upregulation”. The “Hepatic expression of PNPLA2, CPT1a” value in the assay with hepatic gene expression (liver, endpoint, qPCR) is on record as “significantly upregulated”. In assay [1], the “Hepatic steatosis by H&E staining” value is on record as “abolished”; the “Hepatic TC, decreased by” value is given as 63%; the “Hepatic TG, decreased by” value is given as 68%. Moreover, the “Total atherosclerotic plaques … reduction by” value with atherosclerotic lesions came out at 49%.

These data come from patent publication US20230181673A1, “TRI-PEPTIDES AND TREATMENT OF METABOLIC, CARDIOVASCULAR AND INFLAMMATORY DISORDERS” (Diapin Therapeutics, LLC, priority 2018, published 2023).
